Series [1] has as its system levels of DA, NE and 5-HT in rat frontal cortex. The following applies: cited from earlier work.
In a further series the target is T1, 5-HT2C receptor (Rattus norvegicus, UniProt P08909).
T1 construct: host or cells: SR-3T3 cells
T1 sequence (P08909 33-460): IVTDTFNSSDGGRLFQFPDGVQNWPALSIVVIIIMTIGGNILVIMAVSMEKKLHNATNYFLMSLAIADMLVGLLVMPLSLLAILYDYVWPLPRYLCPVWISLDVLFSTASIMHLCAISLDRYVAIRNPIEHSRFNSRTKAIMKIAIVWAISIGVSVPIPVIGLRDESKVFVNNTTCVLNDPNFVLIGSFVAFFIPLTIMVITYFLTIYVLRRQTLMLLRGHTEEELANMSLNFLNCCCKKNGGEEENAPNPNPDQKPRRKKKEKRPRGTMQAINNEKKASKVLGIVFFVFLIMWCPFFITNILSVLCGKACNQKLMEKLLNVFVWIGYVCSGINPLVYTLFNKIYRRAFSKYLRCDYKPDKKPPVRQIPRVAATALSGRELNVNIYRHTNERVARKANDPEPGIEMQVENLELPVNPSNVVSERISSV
Kind of series: 5-HT2C binding (3H-Mesulergine, SR-3T3 cells). The following applies: 0.5 nM 3H-Mesulergine. How it is done: The cell suspension is centrifuged and the pellet resuspended in 50 mM Tris, HCl, pH 7.7 and stored at −80° C. For experimental use, the frozen cell pellet is thawed and homogenised with an Ultra Turrax for 10-15 seconds. 1.5 mg cell preparation is incubated with 0.5 nM 3H-Mesulergine for 60 minutes at 37° C. Incubation is terminated by rapid filtration through Filtermat B filters and bound radioactivity is determined in a Tricarb scintillation counter.

Series [2] concerns 5-HT levels in rat ventral hippocampus. Kind of series: Microdialysis, ventral hippocampus 5-HT levels. The following applies: for enhancement of the effect of citalopram on ventral hippocampal 5-HT levels: 1 μmol/kg simultaneous with 10 μmol/kg citalopram; for serotonin levels as measured in microdialysis experiments: administered alone (summary statement); for effect on rat ventral hippocampal 5-HT levels: 1 μmol/kg subcutaneous; for level of extracellular serotonin: in combination with SSRIs (summary statement). Type of series: in vivo. The source says: Male albino rats of a Wistar-derived strain (285-320 g; Harlan, Zeist, The Netherlands) were used for the experiments. The rats were housed in plastic cages (35×35×40 cm), and had free access to food and water. The experiments are concordant with the declarations of Helsinki and were approved by the Animal Care Committee of the Faculty of Mathematics and Natural Science of the University of Groningen.
The following drugs were used: Citalopram hydrobromide and internal standard (kindly donated by Lundbeck (Copenhagen, Denmark), courtesy Dr. Sanchez), ritanserin and ketanserin tartrate (RBI, Natick, USA). […] All drugs were administered in a volume of 1 mL per kg.
Microdialysis experiments were performed using home made I-shaped probes, made of polyacrylonitrile I sodium methyl sulphonate copolymer dialysis fiber (i.d. 220 μm, o.d. […], AN 69, Hospal, Italy). The exposed length of the membranes was 4 mm. […] Lidocaine-HCl, 10% (m/v) was used for local anaesthesia. Rats were placed in a stereotaxic frame (Kopf, USA), and probes were inserted into the ventral hippocampus (coordinates: IA: +3.7 mm, lateral: +4.8 mm, ventral: −8.0 mm from the dura mater, Paxinos and Watson, 1982) and secured with dental cement.
Probes were perfused with artificial CSF containing 147 mM NaCl, 3.0 mM KCl, 1.2 mM CaCl2, and 1.2 mM MgCl2, at a flow-rate of 1.5 μL/min (Harvard apparatus, South Natick, Ma., USA). Samples were collected on-line in a 20 μL loop and injected automatically onto the column every 15 min.
Serotonin analysis: 5-HT was analysed using HPLC with electrochemical detection. The HPLC pump (Shimadzu LC-10 AD liquid chromatograph) was connected to a reversed phase column (phenomenex hypersil 3: 3 μm, 100×2.0 mm, C18, Bester, Amstelveen, the Netherlands) followed by an electrochemical detector (Antec Leyden, Leiden, the Netherlands), working at a potential setting of 500 mV vs. Ag/AgCl reference. The mobile phase consisted of 5 g/L di-ammoniumsulfate, 500 mg/L ethylene diamino tetra acetic acid (EDTA), 50 mg/L heptane sulphonic acid and 30 μl/L of triethylamine, at a pH of 4.65 and 4.5% (w/w) methanol and water. Flow-rate of the mobile phase was 0.4 ml/min. The detection limit was 0.5 fmol 5-HT per 20 μL sample (signal to noise ratio 3).
Level of significance level was set at p<0. 05.

Series [3] has as its system morphine-induced DA release in rat nucleus accumbens. The following applies: cited from earlier work.
For series [4] the following is noted: combined with fluoxetine; cited from earlier work.
Series [5] deals with prefrontal cortex 5-HT levels. Kind of series: Microdialysis, prefrontal cortex 5-HT levels. In kind it is in vivo, rat.
The test system of series [6] is mouse forced swimming test. The following applies: prior administration; ritanserin 4 mg/kg i.p., ketanserin 8 mg/kg i.p.; cited from earlier work.
The next series in a line: in vivo. The following applies: rat, sc.
In series [7] the test system is NE release in rat hippocampus. The following applies: cited from earlier work.
For another series, the system named is 5-HT2C receptors. The following applies: cited from earlier work.

The Ki is a dissociation constant, usually derived from enzyme kinetics or from competition with a known ligand. Read a low Ki as tighter binding. Usually half-life stands for the time in which the quantity being followed falls by half. A lower half-life goes with rapid decline.

From the text for in vivo: In the pharmacokinetic experiments, blood was drawn through a canula made of silicon tubing, which was inserted into the right jugular vein for 3.8 cm. The tubing was transferred subcutaneously to the scull of the rat, and a stainless steel inlet was connected to the tubing. The inlet was mounted on the skull with dental cement and surgical screws. After insertion, canulas were filled with a PVP solution (55% polyvinylpyrrolidon in 500 IE/mL heparin) in saline to prevent blood clotting.
Pharmacokinetic experiments: Rats were allowed to recover for at least 24 h. […]
Citalopram analysis: Citalopram was measured according to Øyehaug et al. (1982), with minor modifications. […]
With the experiments in which 5 mL plasma was obtained via the vacutainer, a similar protocol was used, but the plasma sample was now extracted three times with 10 mL of ether. An HPLC/auto-injector (1084B Liquid Chromatograph, Hewlett-Packard) was used, in combination with a fluorescence detector (470 Scanning Fluorescence detector, Waters, England) operating at an absorption wavelength of 240 nm, an emission wavelength of 296 nm, and a slit-width of 12 nm. […]
Ketanserin analysis: Ketanserin was measured using liquid-liquid extraction, followed by reversed phase chromatography in conjunction with fluorescence detection. […]

As for `Cc1cc2c(cc1Cl)N(C(=O)Nc1ccc(Oc3cccnc3C)nc1)CC2` [SB-242084], in series [1], the “levels of both DA and NE” value is on record as “increased”; the “levels of serotonin (5-HT)” value is reported as “without modifying”.

Regarding `COc1cc(OC)c(C(=O)CCCCN2CCC3(CC2)NC(=O)NC3=O)cc1NS(=O)(=O)c1ccc(C(F)(F)F)cc1` [RS 102221], the affinity on 5-HT2C receptor, expressed as Ki, was 0.56 nM. In series [2], the “enhancement of the effect of citalopram on ventral hippocampal 5-HT levels” value is listed as “significant enhancement of the effect of citalopram”, the “serotonin levels as measured in microdialysis experiments” value (“serotonin levels as measured” below) is on record as “no increase” and the “level of extracellular serotonin” value is “synergistically act to increase”. Moreover, in series [2] (alone), the “effect on rat ventral hippocampal 5-HT levels” value is “had no effect”.

Consider `Clc1cncc(N2CCNCC2)n1` [MK-212], for which the “morphine-induced DA release” value in series [3] is reported as “inhibited”.

Consider `C[C@H](N)Cn1ccc2cc(F)c(Cl)cc21` [Ro 60-0175], for which, in series [1], the “levels of both DA and NE” value was “suppressed”; the “levels of serotonin (5-HT)” value was “without modifying”.

Regarding `O=C1NCCN1CCN1CCN([C@@H]2C[C@@H](c3ccc(F)cc3)c3ccccc32)CC1` [irindalone], on 5-HT2C receptor, the affinity, expressed as Ki, was 19 nM.

With `CN1CCN2c3ccccc3Cc3ccccc3C2C1` (centres unmarked) [mianserin], in series [4], the “efficacy of fluoxetine in the treatment of treatment resistant patients” value is “augment the efficacy of fluoxetine” and the “latency of onset of antidepressive effect” value is “may shorten the latency of onset”.

`CCc1nn(CCCN2CCN(c3cccc(Cl)c3)CC2)c(=O)n1CCOc1ccccc1` [nefazodone]: the affinity at 5-HT2C receptor corresponds to a Ki of 33 nM.

`O=C(c1ccc(F)cc1)C1CCN(CCn2c(=O)[nH]c3ccccc3c2=O)CC1` [ketanserin]: at 5-HT2C receptor, the affinity corresponds to a Ki of 14 nM. For the same compound, the “augmentation of the citalopram induced increase in cortical 5-HT levels” value in [5] (1 nmol/kg co-administered with citalopram) is reported as “did not augment”; in series [5] (10 nmol/kg co-administered with citalopram, effect did not reach significance), “transiently enhanced the effect of citalopram”; in series [5] (100 nmol/kg simultaneous with citalopram) it was “significant enhancement of the effect of citalopram”. The “effect on prefrontal cortex 5-HT levels” value in series [5] (alone, dose not stated) is on record as “did not show any effect”. In addition, in [6], the “potentiation of the effects of imipramine and desipramine (16 mg/kg i.p.)” value is listed as “potentiated”. The “augmentation of the effect of citalopram on ventral hippocampal 5-HT levels” value in series [2] (1 nmol/kg co-administered with 10 μmol/kg citalopram) is recorded as “did not augment the effect of citalopram”; in series [2] (10 nmol/kg co-administered with 10 μmol/kg citalopram), “significantly enhanced the effect of citalopram”; in series [2] (100 nmol/kg co-administered with 10 μmol/kg citalopram), “significantly enhanced the effect of citalopram”. The “enhancement of the effect of fluoxetine on ventral hippocampal 5-HT levels” value in [2] (100 nmol/kg simultaneous with 5 mg/kg fluoxetine) is “significant enhancement of the effect of fluoxetine”. Further, in series [2], the “serotonin levels as measured” value is listed as “no increase”. In addition, the “effect on ventral hippocampal 5-HT levels” value in series [2] (alone, 100 nmol/kg subcutaneous) was “had no effect”. The “augmentation of the SSRI induced increase in 5-HT levels, ventral hippocampus” value in series [2] (different doses, simultaneous with 10 μmol/kg citalopram) is listed as “dose dependent augmentation”. In addition, the “level of extracellular serotonin” value in [2] was “synergistically act to increase”. The compound further had a half-life in the series “in vivo” (100 nmol/kg) of about 1.5 h.

With `Cc1nc2sccn2c(=O)c1CCN1CCC(=C(c2ccc(F)cc2)c2ccc(F)cc2)CC1` [ritanserin], the “quipazine-induced decrease of NE release” value in series [7] is reported as “antagonised”. The “potentiation of the effects of imipramine and desipramine (16 mg/kg i.p.)” value in series [6] is “potentiated”. Moreover, in [2] (10 μmol/kg i.p. given 60 minutes prior to 10 μmol/kg s.c. citalopram), the “augmentation of the effect of citalopram on ventral hippocampal 5-HT levels” value was “augmented the effect of citalopram significantly”. In series [2] (alone, 10 μmol/kg intraperitoneal), the “effect on 5-HT levels in rat ventral hippocampus” value is listed as “did not have any effect”. Besides, the “level of extracellular serotonin” value in series [2] is on record as “synergistically act to increase”.

On to `Cc1ccc2c(c1)c(-c1ccc(F)cc1)c(C)n2C1CCN(CCN2CCNC2=O)CC1` [Lu 29066, 2,5-dimethyl-3-(4-fluorophenyl)-1-[1-[2-(imidazolidin-2-on-1-yl)ethyl]-piperidin-4-yl]-1H-indole], for which the Ki at 5-HT2C receptor amounted to 6.9 nM. Further, in series [2], the “enhancement of the effect of citalopram on ventral hippocampal 5-HT levels” value is reported as “significant enhancement of the effect of citalopram”, the “serotonin levels as measured” value was “no increase” and the “level of extracellular serotonin” value is “synergistically act to increase”. Besides, the “effect on rat ventral hippocampal 5-HT levels” value in [2] (alone) is given as “had no effect”.

In turn, `CN(C)CCCC1(c2ccc(F)cc2)OCc2cc(C#N)ccc21` (centres unmarked) [citalopram] showed a half-life in the series “in vivo” (10 umol/kg) of about 2 h.

For `Fc1ccc([C@@H]2CCNC[C@H]2COc2ccc3c(c2)OCO3)cc1` [paroxetine], the “effect of chronic administration on 5-HT2C receptors” value in the series on 5-HT2C receptors is given as “functional desensitisation”.

The values are drawn from patent publication US20030032636A1, “Combination of a serotonin reuptake inhibitor and a 5-HT2C antagonist, inverse agonist or partial agonist” (H. Lundbeck A/S, priority 1999, published 2003).
